Source: PMC11279465, “Dual Inhibitors of P-gp and Carbonic Anhydrase XII (hCA XII) against Tumor Multidrug Resistance with Piperazine Scaffold” (Molecules, 2024)
Where “and” joins values, the source holds several entries; their conditions need not be identical. Equal entries are not always repeated.

Tests used:
hCA I = biological target: T1, hCA I (Homo sapiens, UniProt P00915); test: CA inhibition, stopped-flow CO2 hydrase assay; assay type: biochemical; conditions: stopped-flow technique; incubation time 6 h; mean of 3 assays
T1 construct: made in house
T1 sequence (P00915 whole entry): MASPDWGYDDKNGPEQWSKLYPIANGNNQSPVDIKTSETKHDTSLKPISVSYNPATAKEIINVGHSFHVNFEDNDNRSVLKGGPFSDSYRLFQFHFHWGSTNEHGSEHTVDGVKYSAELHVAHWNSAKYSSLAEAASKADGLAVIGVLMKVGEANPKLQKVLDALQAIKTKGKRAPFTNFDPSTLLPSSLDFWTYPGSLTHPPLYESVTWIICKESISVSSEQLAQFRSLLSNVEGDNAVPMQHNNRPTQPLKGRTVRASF
Procedure: (§1) Four hCA isoforms were used in this assay: the cytosolic hCA I and II and the tumor-associated transmembrane hCA IX and XII isoforms. Acetazolamide (AAZ) was used as a standard inhibitor.
(§2) An SX.18MV-R Applied Photophysics (Oxford, UK) stopped-flow instrument has been used to assay the catalytic/inhibition of various CA isozymes. […] Saturated CO2 solutions in water at 25 °C were used as substrate. Stock solutions of inhibitors were prepared at a concentration of 10 μM (in DMSO-water 1:1, v/v) and dilutions up to 0.01 nM were carried out with the assay buffer mentioned above. […] Inhibitor and enzyme solutions were preincubated together for 6 h at room temperature prior to assay in order to allow for the formation of the E-I complex. […] The inhibition constants were obtained by non-linear least-squares methods using the Cheng–Prusoff equation, as reported earlier, and represent the mean from at least three different determinations.

hCA II = biological target: T2, hCA II (Homo sapiens, UniProt P00918); test: CA inhibition, stopped-flow CO2 hydrase assay; assay type: biochemical; conditions: stopped-flow technique; incubation time 6 h; mean of 3 assays
T2 construct: made in house
Procedure: as §1, §2

hCA IX = biological target: T3, hCA IX (Homo sapiens, UniProt Q16790); test: CA inhibition, stopped-flow CO2 hydrase assay; assay type: biochemical; conditions: stopped-flow technique; incubation time 6 h; mean of 3 assays
T3 construct: made in house
Procedure: as §1, §2

hCA XII = biological target: T4, hCA XII (Homo sapiens, UniProt O43570); test: CA inhibition, stopped-flow CO2 hydrase assay; assay type: biochemical; conditions: stopped-flow technique; incubation time 6 h; mean of 3 assays
T4 construct: made in house
T4 sequence (O43570 25-354): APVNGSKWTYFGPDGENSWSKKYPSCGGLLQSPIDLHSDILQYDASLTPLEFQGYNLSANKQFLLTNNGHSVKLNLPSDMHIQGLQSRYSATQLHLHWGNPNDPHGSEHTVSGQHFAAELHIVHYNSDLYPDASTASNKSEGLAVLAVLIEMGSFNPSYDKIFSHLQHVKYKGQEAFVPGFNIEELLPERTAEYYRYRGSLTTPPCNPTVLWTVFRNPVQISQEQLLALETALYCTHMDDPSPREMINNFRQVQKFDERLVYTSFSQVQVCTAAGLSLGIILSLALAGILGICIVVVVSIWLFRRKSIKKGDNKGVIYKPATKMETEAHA
Procedure: as §1, §2

K562/DOX cells [1] = test: Doxorubicin cytotoxicity enhancement assay (MTT); assay type: cell-based, human; conditions: 72 h
Procedure: K562 is a highly undifferentiated erythroleukemia cell line. The doxorubicin-resistant K562/DOX cells overexpress almost exclusively the transporter membrane protein P-gp.
K562/DOX cells were incubated for 72 h with different concentrations of doxorubicin in combination with 1 or 3 µM of all compounds. […] HT29, A549, HT29/DOX and A549/DOX cells were incubated for 48 h with 5 µM doxorubicin, alone or in combination with 1 or 3 µM of selected compounds. Cell viability of the cell lines was measured by the MTT assay, using a Synergy HT microplate spectrofluorometer (Bio-Tek Instruments, Winooski, VT, USA). The absorbance of untreated cells was considered 100%; results were expressed as a percentage of viable treated cells versus the control untreated cells.

A549/DOX cells [2] = test: Doxorubicin co-administration assay (MTT); assay type: cell-based, human; conditions: compound at 3 µM + doxorubicin 5 µM, 48 h
Procedure: (§3) These compounds were then assayed at 1 and 3 µM concentrations in co-administration with doxorubicin at a concentration of 5 µM, which is known to discriminate well between sensitive and resistant cells. […] Moreover, in the A549/DOX cell line, the co-administration of 1, 2, 4–6, 14 and 19, tested at 3 µM, led to the highest enhancement of doxorubicin toxicity reaching a reduction of nearly 55.0% in cell viability.
(§4) K562/DOX cells were incubated for 72 h with different concentrations of doxorubicin in combination with 1 or 3 µM of all compounds. IC50 was the concentration killing 50% of cells and was determined graphically from relative survival curves obtained by GraphPad Prism 5 software (GraphPad, San Diego, CA, USA). HT29, A549, HT29/DOX and A549/DOX cells were incubated for 48 h with 5 µM doxorubicin, alone or in combination with 1 or 3 µM of selected compounds. Cell viability of the cell lines was measured by the MTT assay, using a Synergy HT microplate spectrofluorometer (Bio-Tek Instruments, Winooski, VT, USA). The absorbance of untreated cells was considered 100%; results were expressed as a percentage of viable treated cells versus the control untreated cells.

HT29/DOX cells [3] = test: Doxorubicin co-administration assay (MTT); assay type: cell-based, human; conditions: compound at 3 µM + doxorubicin 5 µM, 48 h
Procedure: as §3, §4

K562/DOX cells [4] = test: Intrinsic cytotoxicity (MTT); assay type: cell-based, human; conditions: compound alone at 3 µM, 72 h
Procedure: Compounds were first studied at 1 and 3 µM concentrations to evaluate their intrinsic cytotoxicity in both the parental K562 and the resistant K562/DOX cell lines, using the MTT assay. All compounds had no intrinsic cytotoxicity in the parental line.
(§5) The intrinsic toxicity of the studied compounds was determined by an MTT assay. K562 and K562/DOX were exposed for 72 h with compounds at 1 and 3 µM concentrations while HT29, A549, HT29/DOX and A549/DOX cells were incubated for 48 h with compounds used at different concentrations (from 10 nM to 50 µM). The percentage of growth compared to the untreated control was transformed into histograms with the GraphPad Prism 5 program.

A549 cells = test: Intrinsic cytotoxicity (MTT); assay type: cell-based, human; conditions: compound alone at 1 µM; parental A549; 48 h
Procedure: (§6) All compounds were preliminarily studied to evaluate their intrinsic cytotoxicity at different concentrations (from 10 nM to 50 µM) in the parental HT29 and A549 and the resistant HT29/DOX and A549/DOX cells using the MTT assay.
as §5

HT29 cells = test: Intrinsic cytotoxicity (MTT); assay type: cell-based, human; conditions: compound alone at 1 µM; parental HT29; 48 h
Procedure: as §6, §5

A549/DOX cells [5] = test: Intrinsic cytotoxicity (MTT); assay type: cell-based, human; conditions: compound alone at 1 µM; A549/DOX; 48 h
Procedure: as §6
as §5, with “program. […]” for “program.”

HT29/DOX cells [6] = test: Intrinsic cytotoxicity (MTT); assay type: cell-based, human; conditions: compound alone at 1 µM; HT29/DOX; 48 h
Procedure: as §6
as §5, with “program. […]” for “program.”

Structure (SMILES) | Ki (hCA I) [nM] | Ki (hCA II) [nM] | Ki (hCA IX) [nM] | Ki (hCA XII) [nM] | RF (Reversal Fold: IC50 of doxorubicin alone / in presence of modulator) (K562/DOX cells [1]; compound at 1 µM) | RF (Reversal Fold: IC50 of doxorubicin alone / in presence of modulator) (K562/DOX cells [1]; compound at 3 µM) | reduction in cell viability (A549/DOX cells [2]) [%] | reduction in cell viability (HT29/DOX cells [3]) [%] | reduction of cellular viability (K562/DOX cells [4]) | toxicity (A549 cells) [%] | toxicity (HT29 cells) [%] | toxicity (A549/DOX cells [5]) [%] | toxicity (HT29/DOX cells [6]) [%]
COc1cc(/C=C/CN2CCN(CCCOc3ccc4ccc(=O)oc4c3)CC2)cc(OC)c1OC [Compound 2, (E)-7-(3-(4-(3-(3,4,5-Trimethoxyphenyl)allyl)piperazin-1-yl)propoxy)-2H-chromen-2-one] | > 10000 | > 10000 | 62.6 | 29.4 | 3.8 | 4.5 | ~55.0 |  |  |  |  |  | 
COc1cc(/C=C/CN2CCN(CCOc3ccc4c(C)cc(=O)oc4c3)CC2)cc(OC)c1OC [Compound 4, (E)-4-Methyl-7-(2-(4-(3-(3,4,5-trimethoxyphenyl)allyl)piperazin-1-yl)ethoxy)-2H-chromen-2-one] | > 10000 | > 10000 | 25.2 | 32.8 | 5.7 | 15.8 |  | 65.0 |  |  |  |  | 
COc1cc(/C=C/CN2CCN(CCCOc3ccc4c(C)cc(=O)oc4c3)CC2)cc(OC)c1OC [Compound 5, (E)-4-Methyl-7-(3-(4-(3-(3,4,5-trimethoxyphenyl)allyl)piperazin-1-yl)propoxy)-2H-chromen-2-one] | > 10000 | > 10000 | 34.7 | 27.2 | 5.5 | 27.6 |  | 65.0 |  |  |  |  | 
COc1cc(/C=C/CN2CCN(CCCCOc3ccc4oc(=O)ccc4c3)CC2)cc(OC)c1OC [Compound 9, (E)-6-(4-(4-(3-(3,4,5-Trimethoxyphenyl)allyl)piperazin-1-yl)butoxy)-2H-chromen-2-one] | > 10000 | > 10000 | 22.1 | 7.3 | 2.5 | 1.3 |  |  | 30–50% |  |  |  | 
COc1cc(/C=C/CN2CCN(CCCCOc3ccc4oc(=O)cc(C)c4c3)CC2)cc(OC)c1OC [Compound 12, (E)-4-Methyl-6-(4-(4-(3-(3,4,5-trimethoxyphenyl)allyl)piperazin-1-yl)butoxy)-2H-chromen-2-one] | > 10000 | > 10000 | 104 | 140 | 1.9 | 2.7 |  |  |  | ≥ 35 | ≥ 35 | ≥ 35 | ≥ 35
COc1cc(CN2CCN(CCCCOc3ccc4ccc(=O)oc4c3)CC2)cc(OC)c1OC [Compound 15, 7-(4-(4-(3,4,5-Trimethoxybenzyl)piperazin-1-yl)butoxy)-2H-chromen-2-one] | > 10000 | > 10000 | 29 | 42.9 | 1.2 | 2.3 |  |  |  |  |  | ≥ 35 | ≥ 35
COc1ccc(C(CCCN2CCN(CCCOc3ccc4c(C)cc(=O)oc4c3)CC2)c2ccc(OC)cc2)cc1 [Compound 29, 7-(3-(4-(4,4-Bis(4-methoxyphenyl)butyl)piperazin-1-yl)propoxy)-4-methyl-2H-chromen-2-one] | > 10000 | > 10000 | 149 | 91.5 |  |  |  |  |  | ≥ 35 | ≥ 35 | ≥ 35 | ≥ 35
COc1ccc(C(CCCN2CCN(CCCOc3ccc4oc(=O)cc(C)c4c3)CC2)c2ccc(OC)cc2)cc1 [Compound 35, 6-(3-(4-(4,4-Bis(4-methoxyphenyl)butyl)piperazin-1-yl)propoxy)-4-methyl-2H-chromen-2-one] | > 10000 | > 10000 | 523 | 335 |  | 14.3 |  |  |  | ≥ 35 | ≥ 35 | ≥ 35 | ≥ 35
COc1ccc(C(CCCN2CCN(CCCCOc3ccc4oc(=O)cc(C)c4c3)CC2)c2ccc(OC)cc2)cc1 [Compound 36, 6-(4-(4-(4,4-Bis(4-methoxyphenyl)butyl)piperazin-1-yl)butoxy)-4-methyl-2H-chromen-2-one] | > 10000 | > 10000 | 332 | 298 |  |  |  |  |  | ≥ 35 | ≥ 35 | ≥ 35 | ≥ 35

Continued, in another order:

Ki (hCA I) [nM] | Ki (hCA II) [nM] | Ki (hCA IX) [nM] | Ki (hCA XII) [nM] | Structure (SMILES) | RF (Reversal Fold: IC50 of doxorubicin alone / in presence of modulator) (K562/DOX cells [1]; compound at 1 µM) | RF (Reversal Fold: IC50 of doxorubicin alone / in presence of modulator) (K562/DOX cells [1]; compound at 3 µM) | reduction in cell viability (A549/DOX cells [2]) [%] | reduction in cell viability (HT29/DOX cells [3]) [%] | reduction of cellular viability (K562/DOX cells [4]) | toxicity (A549 cells) [%] | toxicity (HT29 cells) [%] | toxicity (A549/DOX cells [5]) [%] | toxicity (HT29/DOX cells [6]) [%]
> 10000 | > 10000 | 51.3 | 13 | COc1cc(/C=C/CN2CCN(CCOc3ccc4ccc(=O)oc4c3)CC2)cc(OC)c1OC [Compound 1, (E)-7-(2-(4-(3-(3,4,5-Trimethoxyphenyl)allyl)piperazin-1-yl)ethoxy)-2H-chromen-2-one] | 1.6 | 2.3 | ~55.0 |  |  |  |  |  | 
> 10000 | > 10000 | 51 | 29.5 | COc1cc(/C=C/CN2CCN(CCOc3ccc4oc(=O)ccc4c3)CC2)cc(OC)c1OC [Compound 7, (E)-6-(2-(4-(3-(3,4,5-Trimethoxyphenyl)allyl)piperazin-1-yl)ethoxy)-2H-chromen-2-one] | 1 and 1.1 | 1 |  |  | 30–50% |  |  |  | 
> 10000 | > 10000 | 40.1 | 13.6 | COc1cc(CN2CCN(CCCOc3ccc4ccc(=O)oc4c3)CC2)cc(OC)c1OC [Compound 14, 7-(3-(4-(3,4,5-Trimethoxybenzyl)piperazin-1-yl)propoxy)-2H-chromen-2-one] | 1.0 | 3.4 | ~55.0 | 65.0 |  |  |  |  | 
> 10000 | > 10000 | 84.7 | 5.8 | COc1cc(CN2CCN(CCOc3ccc4oc(=O)ccc4c3)CC2)cc(OC)c1OC [Compound 19, 6-(2-(4-(3,4,5-Trimethoxybenzyl)piperazin-1-yl)ethoxy)-2H-chromen-2-one] | 1.4 | 2.2 | ~55.0 | 65.0 |  |  |  |  | 
